Test results from patent US20040071768A1, “Compositions and methods for treating cancer” (Inex Pharmaceuticals Corporation, priority 1999, published 2004).
Where two headings read alike, the source gives them in different places.

Tests used:
[1] = Vinorelbine tolerability, multiple dosing (q7d x 3), nude mice; format: in vivo, NCr nu/nu mice; conditions: Nudes
Description: Single and multiple (q7dx3) dose MTD studies were performed in tumor-bearing and non-tumor bearing NCr nu/nu mice, as well as healthy, outbred ICR mice.

[2] = animal studies and clinical trials; cited from earlier work
[3] = tested on: MDA-MB-435 breast xenografts
Description: Female NCr nude mice were injected intravenously (q7dx3, beginning day 15) via the lateral tail vein. […] Paclitaxel (⋄) was prepared in […]/12.5% ethanol/75% saline and injected iv (q1dx5) at a dose of 15 mg/kg/dose. Drug-to-lipid ratio was 0.3/1 (w/w). Data points represent median tumor volume (n=6).
(§1) The anti-tumor activity of multiple (q7d3) dose schedules of liposomal vinorelbine was evaluated in several human xenograft tumor models. The goal of this series of studies was to identify the benefits of encapsulation by evaluating a series of doses and determining the therapeutic index in several xenograft models. Models were selected based on the following criteria: (1) activity in the single dose studies, (2) a comprehensive literature review of vinca alkaloid efficacy, (3) a desire to include at least 2-3 models that represent the clinical use of vinorelbine, and (4) a desire to include models with a range of sensitivity to vinorelbine so that improvements resulting from the use of the liposome formulation might be identified. Based on these criteria, MX-1 and MDA-MB-435 breast models, the NCl-H460 NSCLC model and the HT-29 and DLD-1 colon models were chosen.
(§2) Therapeutic index (TI) is a parameter that quantifies the “safety factor” of a particular therapy. TI is a ratio of a toxicity parameter and a biological activity parameter. Therefore, a higher ratio represents a greater potential margin of safety. For these studies, TI is defined as follows: […]
(§3) The minimal effective dose (MED) was set according to NCl activity criteria as the dose resulting in an optimal % T/C of 40. This information was derived from Table 7.

[4] = tested on: RXF393 renal xenografts; test: Single dose anti-tumor activity, RXF393 renal xenograft; format: in vivo; conditions: RXF-393
Description: (§4) Male NCr nude mice were injected intravenously via the lateral tail vein on day 7 post-tumor-implantation with saline (♦), NVB at 45.0 mg/kg (◯) and 34.0 mg/kg (□), or NVB-TCS at 15.0 mg/kg (●) and 11.0 mg/kg (▪) at a drug-to-lipid ratio of 0.3:1 (w/w). The arrow on the x-axis denotes the day of drug administration. Data points represent mean±SEM (n=10). […]
(§5) Tumor models investigated included RXF393 (renal), MX-1 (breast), LX-1 (small cell lung cancer), PC-3 (prostate), and HT29 (colon). These models were known to be sensitive to vinorelbine. Tumor fragments were implanted subcutaneously in the flank of NCr nu/nu mice. […] Animal weights and tumor size were determined twice weekly.

[5] = tested on: DLD-1 colon xenografts
Description: Female NCr nude mice were injected intravenously (q7dx3) via the lateral tail vein on days indicated by an asterisk (*). […] Irinotecan (⋄) was prepared in saline and injected iv (q4dx3) at a dose of 90 mg/kg/dose. Drug-to-lipid ratio was 0.3/1 (w/w). Data points represent median tumor volume (n=6).
as §1, §2, §3

[6] = tested on: MX-1 breast xenografts
Description: Female NCr nude mice were injected intravenously (q7dx3) via the lateral tail vein on days indicated by an asterisk (*). […] Drug-to-lipid ratio was 0.3/1 (w/w). Data points represent median tumor volume (n=6).
as §1, §2, §3

[7] = tested on: MX-1 breast xenografts; test: Single dose anti-tumor activity, MX-1 breast xenograft; format: in vivo
Description: as §4, with “Female” for “Male”, “8” for “7”, “34.0” for “45.0”, “25.5” for “34.0”
as §5

CCC1=C[C@@H]2CN(C1)Cc1c([nH]c3ccccc13)[C@@](C(=O)OC)(c1cc3c(cc1OC)N(C)[C@H]1[C@@](O)(C(=O)OC)[C@H](OC(C)=O)[C@]4(CC)C=CCN5CC[C@]31[C@@H]54)C2 [VRL, 5′-noranhydrovinblastine]
DRD ([1]; 5 mg/kg q7d x 3): 0/30
DRD ([1]; 10 mg/kg q7d x 3): 0/37
DRD ([1]; 20 mg/kg q7d x 3): 2/37
DRD ([1]; 25 mg/kg q7d x 3): 0/7
DRD ([1]; 30 mg/kg q7d x 3): 6/18
drug excreted in feces [2]: 40-50%
drug excreted in urine [2]: ~20%
% T/C (optimal % T/C following final treatment) ([3]; 5 mg/kg i.v. q7dx3): −3%
DRD (drug related deaths, n = 6) ([3]; 5 mg/kg i.v. q7dx3): 0
NCI Score ([3]; 5 mg/kg i.v. q7dx3): 2
T-C (tumor growth delay to 1000 mm^3) ([3]; 5 mg/kg i.v. q7dx3): 37.5
TF (tumor free animals at the end of study) ([3]; 5 mg/kg i.v. q7dx3, n=6): 0
% T/C (optimal % T/C following final treatment) ([3]; 10 mg/kg i.v. q7dx3): −100%
DRD (drug related deaths, n = 6) ([3]; 10 mg/kg i.v. q7dx3): 0
NCI Score ([3]; 10 mg/kg i.v. q7dx3): 3
T-C (tumor growth delay to 1000 mm^3) ([3]; 10 mg/kg i.v. q7dx3): >62
TF (tumor free animals at the end of study) ([3]; 10 mg/kg i.v. q7dx3, n=6): 1
% T/C (optimal % T/C following final treatment) ([3]; 20 mg/kg i.v. q7dx3): −100%
DRD (drug related deaths, n = 6) ([3]; 20 mg/kg i.v. q7dx3): 2
NCI Score ([3]; 20 mg/kg i.v. q7dx3): 4
T-C (tumor growth delay to 1000 mm^3) ([3]; 20 mg/kg i.v. q7dx3): >62
TF (tumor free animals at the end of study) ([3]; 20 mg/kg i.v. q7dx3, n=6): 4
% T/C (optimal % T/C following final treatment) ([3]; 30 mg/kg i.v. q7dx3): −100%
DRD (drug related deaths, n = 6) ([3]; 30 mg/kg i.v. q7dx3): 1
NCI Score ([3]; 30 mg/kg i.v. q7dx3): 4
T-C (tumor growth delay to 1000 mm^3) ([3]; 30 mg/kg i.v. q7dx3): >62
TF (tumor free animals at the end of study) ([3]; 30 mg/kg i.v. q7dx3, n=6): 3
% T/C (optimal % T/C following final treatment) ([4]; single i.v. dose 34 mg/kg): −6%
DRD (drug related deaths) ([4]; single i.v. dose 34 mg/kg): 2/10
MWL (maximum mean weight loss per treatment group) ([4]; single i.v. dose 34 mg/kg): −23.1
NCI Score ([4]; single i.v. dose 34 mg/kg): 2
T-C (tumor growth delay to 1000 mm^3) ([4]; single i.v. dose 34 mg/kg): 22
TF (tumor free animals at the end of study) ([4]; single i.v. dose 34 mg/kg): 2/8
% T/C (optimal % T/C following final treatment) ([4]; single i.v. dose 45 mg/kg): Toxic
DRD (drug related deaths) ([4]; single i.v. dose 45 mg/kg): 9/10
MWL (maximum mean weight loss per treatment group) ([4]; single i.v. dose 45 mg/kg): −24.6
TF (tumor free animals at the end of study) ([4]; single i.v. dose 45 mg/kg): 0/1
% T/C (optimal % T/C following final treatment) ([5]; 5 mg/kg i.v. q7dx3): 88%
DRD (drug related deaths, n = 6) ([5]; 5 mg/kg i.v. q7dx3): 0
NCI Score ([5]; 5 mg/kg i.v. q7dx3): 0
T-C (tumor growth delay to 1000 mm^3) ([5]; 5 mg/kg i.v. q7dx3): 0.0
TF (tumor free animals at the end of study) ([5]; 5 mg/kg i.v. q7dx3, n=6): 0
% T/C (optimal % T/C following final treatment) ([5]; 10 mg/kg i.v. q7dx3): 58%
DRD (drug related deaths, n = 6) ([5]; 10 mg/kg i.v. q7dx3): 0
NCI Score ([5]; 10 mg/kg i.v. q7dx3): 0
T-C (tumor growth delay to 1000 mm^3) ([5]; 10 mg/kg i.v. q7dx3): 4.7
TF (tumor free animals at the end of study) ([5]; 10 mg/kg i.v. q7dx3, n=6): 0
% T/C (optimal % T/C following final treatment) ([5]; 20 mg/kg i.v. q7dx3): −36%
DRD (drug related deaths, n = 6) ([5]; 20 mg/kg i.v. q7dx3): 0
NCI Score ([5]; 20 mg/kg i.v. q7dx3): 2
T-C (tumor growth delay to 1000 mm^3) ([5]; 20 mg/kg i.v. q7dx3): 19.7
TF (tumor free animals at the end of study) ([5]; 20 mg/kg i.v. q7dx3, n=6): 0
% T/C (optimal % T/C following final treatment) ([5]; 30 mg/kg i.v. q7dx3): −100%
DRD (drug related deaths, n = 6) ([5]; 30 mg/kg i.v. q7dx3): 2
NCI Score ([5]; 30 mg/kg i.v. q7dx3): 3
T-C (tumor growth delay to 1000 mm^3) ([5]; 30 mg/kg i.v. q7dx3): 26.4
TF (tumor free animals at the end of study) ([5]; 30 mg/kg i.v. q7dx3, n=6): 0
% T/C (optimal % T/C following final treatment) ([6]; 5 mg/kg i.v. q7dx3): 100%
DRD (drug related deaths, n = 6) ([6]; 5 mg/kg i.v. q7dx3): 0
NCI Score ([6]; 5 mg/kg i.v. q7dx3): 0
T-C (tumor growth delay to 1000 mm^3) ([6]; 5 mg/kg i.v. q7dx3): 0
TF (tumor free animals at the end of study) ([6]; 5 mg/kg i.v. q7dx3, n=6): 0
% T/C (optimal % T/C following final treatment) ([6]; 10 mg/kg i.v. q7dx3): 38%
DRD (drug related deaths, n = 6) ([6]; 10 mg/kg i.v. q7dx3): 0
NCI Score ([6]; 10 mg/kg i.v. q7dx3): 1
T-C (tumor growth delay to 1000 mm^3) ([6]; 10 mg/kg i.v. q7dx3): 7.3
TF (tumor free animals at the end of study) ([6]; 10 mg/kg i.v. q7dx3, n=6): 0
% T/C (optimal % T/C following final treatment) ([6]; 20 mg/kg i.v. q7dx3): −28%
DRD (drug related deaths, n = 6) ([6]; 20 mg/kg i.v. q7dx3): 0
NCI Score ([6]; 20 mg/kg i.v. q7dx3): 3
T-C (tumor growth delay to 1000 mm^3) ([6]; 20 mg/kg i.v. q7dx3): 28.5
TF (tumor free animals at the end of study) ([6]; 20 mg/kg i.v. q7dx3, n=6): 0
% T/C (optimal % T/C following final treatment) ([7]; single i.v. dose 25.5 mg/kg): 13%
DRD (drug related deaths) ([7]; single i.v. dose 25.5 mg/kg): 1/10
MWL (maximum mean weight loss per treatment group) ([7]; single i.v. dose 25.5 mg/kg): −14.8
NCI Score ([7]; single i.v. dose 25.5 mg/kg): 1
T-C (tumor growth delay to 1000 mm^3) ([7]; single i.v. dose 25.5 mg/kg): 13
TF (tumor free animals at the end of study) ([7]; single i.v. dose 25.5 mg/kg): 1/9
% T/C (optimal % T/C following final treatment) ([7]; single i.v. dose 34 mg/kg): 11%
DRD (drug related deaths) ([7]; single i.v. dose 34 mg/kg): 0/10
MWL (maximum mean weight loss per treatment group) ([7]; single i.v. dose 34 mg/kg): −17.4
NCI Score ([7]; single i.v. dose 34 mg/kg): 1
T-C (tumor growth delay to 1000 mm^3) ([7]; single i.v. dose 34 mg/kg): 16
TF (tumor free animals at the end of study) ([7]; single i.v. dose 34 mg/kg): 3/10
